# Values joined by “and” are separate entries in the source; they are usually repeats but may differ in a detail not shown here. Equal values may be shown once.
# Experiments:
# [1] = system: MV4-11 i.v. in BALB/cA Rag2-/-γc-/- mice; assay: Intravenous xenograft model (survival, CD11b in blood, body weight); format: in vivo, mouse; details: for body weight of mice: intravenous MV4-11 AML mouse model, individual mice
# Description: (§1) The human AML MV4-11 and MOLM-13 xenograft mice models were generated by intravenous (i.v.) injection of 10 × 10^6 (MV4-11) or 1 × 10^4 (MOLM-13) cells diluted in 100 µL of saline solution in the tail vein of a 6-8-week-old female BALB/cA Rag2^−/−γc^−/− mice (n = 10). Treatment started 7 or 1 day after MV4-11 or MOLM-13 cells injection, respectively. MV4-11 and MOLM-13 mice were treated with i.p. 10 mg/kg of CM-444 and CM-1758 during 5 consecutive days followed by 2 resting days for 7 and 2 weeks, respectively. The control group received only 80% saline solution, 10% DMSO and 10% Tween 20 (diluents of CM-444 and CM-1758). The mice weight was controlled and remained stable during the treatment. Statistical results were calculated using the statistical software Medcalc. CD11b levels in blood samples from an intravenous MV4-11 mice model were measured by flow cytometry, as described above.
# [2] = system: MOLM-13 i.v. in BALB/cA Rag2-/-γc-/- mice; assay: as above; format: in vivo, mouse; details: for Body weight: intravenous MOLM-13 AML mouse model, individual mice
# Description: as §1
# MOLM-13 = assay: q-RT-PCR of MYC, CDKN2A, CDKN1A, GATA2, TAL1, CEBPA, SPI1; format: cell-based, human
# Description: (§2) RNA was extracted with TRIzol Reagent (Invitrogen) according to the manufacturer’s instructions. First, cDNA was synthesized from 1 µg of total RNA using the PrimeScript RT reagent Kit (Perfect Real Time) (Cat No RR037A, TaKaRa) following the manufacturer’s instructions. The quality of cDNA was checked by a multiplex PCR that amplifies PBGD, ABL, BCR and β2-MG genes. […] The following program conditions were used for the q-PCR: 50 °C for 2 min, 95 °C for 60 s following by 45 cycles at 95 °C for 15 s and 60 °C for 60 s; melting program, one cycle at 95 °C for 15 s, 40 °C for 60 s, and 95 °C for 15 s. The relative expression of each gene was quantified by the […] method using the gene GUS as an endogenous control. The sequence of primers used can be found in Supplementary Table 10.
# MV4-11 = assay: as above; format: cell-based, human
# Description: as §2
# HL-60 = assay: as above; format: cell-based, human
# Description: as §2
# ML-2 = assay: as above; format: cell-based, human
# Description: as §2
# [3] = system: global 5-methylcytosine levels in HL-60, ML-2, MV4-11 and MOLM-13 cell lines; assay: Dot blot; format: cell-based, human; details: HL-60, 270 nM CM-444 or 300 nM CM-1758, 48 h
# Description: DNA purity and concentration were measured using a NanoDrop spectrophotometer (Thermo Scientific). A 500 ng amount of genomic DNA was loaded onto a nitrocellulose membrane (Amersham Hybond_N+, RPN203B, GE Healthcare), pre-wetted in 6X SSC for 10 min, using the Bio-Dot microfiltration apparatus (Cat No 170-6545, Bio-Rad) following the manufacturer’s instructions. Next, the membrane was incubated with 2X SSC for 5 min and cross-linked for 2 h at 80 °C. The membrane, after being blocked with Tropix I-block blocking reagent (Cat No AI300, Tropix) in PBS with 0.1% Tween 20 and 0.02 NaN3, was incubated with the primary antibody against 5-methylcytosine (monoclonal antibody 5-methylcytidine, Cat No BI-MECY-1000, Eurogentec) diluted 1:4000 o/n at 4 °C and then with alkaline phosphatase-conjugated secondary antibody. […] To ensure equal loading of total DNA on the membrane, the same blot was stained with 0.02% methylene blue in 0.3 M sodium acetate (pH 5.2).
# Cytotoxicity (LC50) = format: cell-based; details: human, THLE-2 cells (immortalized liver cell line, ATCC CRL-2706)
# [4] = MOLM-13, daily treatment for 48 h, replicates 1-3
# [5] = MV4-11, daily treatment for 48 h, replicates 1-3
# [6] = HL-60, replicates 1-3 (Figure 2E)
# [7] = HL-60, replicates 1-3 (Figure 2G)
# [8] = HL-60 treated daily for 48 h, replicates (Fig 6F)
# [9] = ML-2, replicates 1-3 (Figure 2E)
# [10] = ML-2, replicates 1-3 (Figure 2G)
# [11] = ML-2 treated daily for 48 h, replicates (Fig 6G)
structure (smiles),measurement,setting,value
"COc1cc2nc(-c3ccc(C)o3)cc(NCC3CCN(c4ncc(C(=O)NO)cn4)CC3)c2cc1OC [CM-444, 2-[4-[[[6,7-dimethoxy-2-(5-methyl-2-furyl)-4-quinolyl]amino]methyl]-1-piperidyl]pyrimidine-5-carbohydroxamic acid]",CD11b in blood samples,"[1]; MV4-11 i.v., 10 mg/kg i.p.",statistically significant increase in CD11b
same,overall survival (OS),"[1]; MV4-11 i.v., 10 mg/kg i.p., 5 days on/2 off, 7 weeks",increased overall survival
same,body weight of mice,[1]; day 20,26 (2×) and 24.2 and 24.3 and 23.2 and 24.5 (2×) and 25.1 and 24.8 and 27 and 25.7 and 24
same,body weight of mice,[1]; day 23,26.5 and 24.3 (3×) and 24.7 and 23.9 and 25.1 and 25.2 and 24.9 and 24.6 and 27.6 and 26.2
same,body weight of mice,[1]; day 25,26.4 and 24.4 and 24.5 and 23.9 and 24.8 (2×) and 25.1 (2×) and 23.7 and 27.9 and 26.1 and 24.2
same,body weight of mice,[1]; day 28,25.9 and 24.3 and 24.1 (2×) and 22 and 24.6 (2×) and 25.3 and 25.1 and 27.9 and 26.2 and 24.2
same,body weight of mice,[1]; day 30,26.4 and 24 (2×) and 23.8 and 20.4 and 24.3 and 25 and 24.7 and 24.2 and 27.6 and 25.5 and 24.5
same,body weight of mice,[1]; day 31,25.8 and 24.8 (2×) and 24.4 and 22.9 and 25.7 and 24.5 and 23.7 and 27.3 and 24.6 and 24.7
same,body weight of mice,[1]; day 35,26.1 (2×) and 23.9 and 23.7 and 24.1 and 25.9 and 24.3 and 24.7 and 26.6 and 25
same,body weight of mice,[1]; day 37,26.5 and 24.6 and 24.4 and 25 (3×) and 27.2 (2×) and 27.7 and 27
same,body weight of mice,[1]; day 42,25.9 and 24.4 and 22.5 and 24.3 (2×) and 27 and 25.2 and 26.9 and 27.3
same,CD11b levels in blood samples,"[1]; mice engrafted intravenously with MV4-11 cells, individual mice (Fig 3E)",7.18% and 15.3% and 22.1% and 21.14% and 13% and 34.5% and 22% and 9.14% and 7.78%
same,"Survival time (Kaplan-Meier, event = 1)","[1]; mice engrafted with MV4-11 cells intravenously, individual mice (Fig 3D)",32 days and 46 days and 48 days and 51 days and 53 days and 54 days
same,overall survival (OS),"[2]; MOLM-13 i.v., 10 mg/kg i.p., 5 days on/2 off, 2 weeks",not having observed an increase in OS
same,Body weight,[2]; day 4,22.8 and 24 (2×) and 25 and 23.7 and 22.6 (2×) and 23.6 and 23 and 25.3
same,Body weight,"[2]; day 6, in g (unit assumed)",23.1 and 23.8 and 23.5 and 25 and 24.1 and 23.2 and 23 and 22.6 and 22 and 26.2
same,Body weight,[2]; day 8,22 (2×) and 23.1 and 23.6 and 24.1 and 23.2 and 22.9 and 22.7 and 22.6 and 25.8
same,Body weight,[2]; day 11,21.7 and 22.4 and 23 and 24.4 and 22.3 and 22.8 and 22.2 (2×) and 21.4 and 24.5
same,Body weight,[2]; day 13,22.1 (2×) and 23 and 23.1 and 24 and 22.7 and 22.9 and 22.3 and 21.2 and 24.8
same,"q-PCR of CEBPA, log10 (2-ΔΔCt)",MOLM-13; [4],2.5418 and 2.486 and 2.37
same,"q-PCR of GATA2, log10 (2-ΔΔCt)",MOLM-13; [4],1.451 and 1.32 and 1.2001
same,"q-PCR of MYC, log10 (2-ΔΔCt)",MOLM-13; [4],-0.5166 and -0.6125 and -0.4922
same,"q-PCR of SPI1, log10 (2-ΔΔCt)",MOLM-13; [4],0.3255 and 0.2581 and 0.1964
same,"q-PCR of TAL1, log10 (2-ΔΔCt)",MOLM-13; [4],1.582 and 1.681 and 1.836
same,CDKN1A log10 (2-ΔΔCt),"MOLM-13; MOLM-13, q-PCR",0.9026 and 0.7158 and 0.9504
same,CDKN2A log10 (2-ΔΔCt),"MOLM-13; MOLM-13, q-PCR",0.7237 and 0.7926 and 0.8396
same,CEBPA log10 (2-ΔΔCt),"MOLM-13; MOLM-13, q-PCR",1.789 and 1.635 and 1.622
same,GATA2 log10 (2-ΔΔCt),"MOLM-13; MOLM-13, q-PCR",0.9826 and 1.026 and 1.05
same,MYC log10 (2-ΔΔCt),"MOLM-13; MOLM-13, q-PCR",-0.5821 and -0.5713 and -0.4455
same,SPI1 log10 (2-ΔΔCt),"MOLM-13; MOLM-13, q-PCR",0.02369 and 0.04258 and 0.1281
same,TAL1 log10 (2-ΔΔCt),"MOLM-13; MOLM-13, q-PCR",1.526 and 1.626 and 1.825
same,"q-PCR of CEBPA, log10 (2-ΔΔCt)",MV4-11; [5],1.345 and 1.361 and 1.2654
same,"q-PCR of GATA2, log10 (2-ΔΔCt)",MV4-11; [5],2.051 and 2.02 and 2.0001
same,"q-PCR of MYC, log10 (2-ΔΔCt)",MV4-11; [5],-0.5124 and -0.645 and -0.6461
same,"q-PCR of SPI1, log10 (2-ΔΔCt)",MV4-11; [5],0.5839 and 0.521 and 0.5293
same,"q-PCR of TAL1, log10 (2-ΔΔCt)",MV4-11; [5],0.7218 and 0.3689 and 0.9897
same,CDKN1A log10 (2-ΔΔCt),"MV4-11; MV4-11, q-PCR",0.9858 and 0.7237 and 0.8689
same,CDKN2A log10 (2-ΔΔCt),"MV4-11; MV4-11, q-PCR",1.137 and 1.036 and 1.001
same,CEBPA log10 (2-ΔΔCt),"MV4-11; MV4-11, q-PCR",1.693 and 1.502 and 1.597
same,MYC log10 (2-ΔΔCt),"MV4-11; MV4-11, q-PCR",-0.5932 and -0.4926 and -0.5131
same,SPI1 log10 (2-ΔΔCt),"MV4-11; MV4-11, q-PCR",0.3258
same,TAL1 log10 (2-ΔΔCt),"MV4-11; MV4-11, q-PCR",0.527 and 0.4921 and 0.4657
same,"q-PCR of CDKN1A (p21), log10 (2-ΔΔCt)",HL-60; [6],1.981 and 1.653 and 1.57
same,"q-PCR of CDKN2A (p16), log10 (2-ΔΔCt)",HL-60; [6],0.3125 and 0.3822 and 0.4047
same,"q-PCR of MYC, log10 (2-ΔΔCt)",HL-60; [6],-0.5893 and -0.4826 and -0.451
same,"q-PCR of CEBPA, log10 (2-ΔΔCt)",HL-60; [7],0.7569 and 0.6258 and 0.5709
same,"q-PCR of GATA2, log10 (2-ΔΔCt)",HL-60; [7],1.013 and 0.858 and 0.8451
same,"q-PCR of SPI1 (PU.1), log10 (2-ΔΔCt)",HL-60; [7],0.7127 and 0.6825 and 0.8316
same,"q-PCR of TAL1 (SCL), log10 (2-ΔΔCt)",HL-60; [7],0.1258 and 0.2369 and 0.3382
same,q-PCR of CEBPA,HL-60; [8],1.462 log10 (2-ΔΔCt) and 1.7754 log10 (2-ΔΔCt) and 1.81 log10 (2-ΔΔCt)
same,q-PCR of GATA2,HL-60; [8],0.8764 log10 (2-ΔΔCt) and 0.8459 log10 (2-ΔΔCt) and 0.7844 log10 (2-ΔΔCt)
same,q-PCR of MYC,HL-60; [8],-0.6475 log10 (2-ΔΔCt) and -0.7277 log10 (2-ΔΔCt) and -0.6044 log10 (2-ΔΔCt)
same,q-PCR of SPI1,HL-60; [8],0.6661 log10 (2-ΔΔCt) and 0.715 log10 (2-ΔΔCt) and 0.8576 log10 (2-ΔΔCt)
same,q-PCR of TAL1,HL-60; [8],2.167 log10 (2-ΔΔCt) and 1.539 log10 (2-ΔΔCt) and 2.185 log10 (2-ΔΔCt)
same,"q-PCR of CDKN1A (p21), log10 (2-ΔΔCt)",ML-2; [9],1.227 and 1.353 and 1.599
same,"q-PCR of CDKN2A (p16), log10 (2-ΔΔCt)",ML-2; [9],0.6515 and 0.5026 and 0.5454
same,"q-PCR of MYC, log10 (2-ΔΔCt)",ML-2; [9],-1.502 and -1.26 and -1.4
same,"q-PCR of CEBPA, log10 (2-ΔΔCt)",ML-2; [10],0.9236 and 1.002 and 0.879
same,"q-PCR of GATA2, log10 (2-ΔΔCt)",ML-2; [10],2.413 and 2.636 and 2.689
same,"q-PCR of SPI1 (PU.1), log10 (2-ΔΔCt)",ML-2; [10],0.5237 and 0.6236 and 0.7619
same,"q-PCR of TAL1 (SCL), log10 (2-ΔΔCt)",ML-2; [10],0.9258 and 1.226 and 0.9453
same,q-PCR of CEBPA,ML-2; [11],1.15 log10 (2-ΔΔCt) and 1.105 log10 (2-ΔΔCt) and 1.112 log10 (2-ΔΔCt)
same,q-PCR of GATA2,ML-2; [11],1.841 log10 (2-ΔΔCt) and 1.852 log10 (2-ΔΔCt) and 1.8708 log10 (2-ΔΔCt)
same,q-PCR of MYC,ML-2; [11],-0.8138 log10 (2-ΔΔCt) and -0.7958 log10 (2-ΔΔCt) and -0.772 log10 (2-ΔΔCt)
same,q-PCR of SPI1,ML-2; [11],0.6179 log10 (2-ΔΔCt) and 0.715 log10 (2-ΔΔCt) and 0.7068 log10 (2-ΔΔCt)
same,q-PCR of TAL1,ML-2; [11],0.9832 log10 (2-ΔΔCt) and 1.433 log10 (2-ΔΔCt) and 0.7663 log10 (2-ΔΔCt)
same,5mC level (dot blot),[3],no changes
same,CC50,Cytotoxicity (LC50),0.794 µM

# — publication PMC11219871, “Epigenetic-based differentiation therapy for Acute Myeloid Leukemia” (Nature Communications, 2024)
